The source of these data is patent US20100119595A1, “Monounsaturated fatty acids and perhydrocyclopentanophenanthrene nucleus combination molecules, and their precursors, and the use of all of these as weight-loss agents” (priority 2001, published 2010).

Molecules are shown by their SMILES.

Test [1] in a line: Rat study of 2 hydroxyestrone oleate (Example 12). To be noted: rats, oral gavage 21 days, 10, 5, 3.33 or 2.5 micromoles/kg. In kind it is in vivo, Osborne Mendle rats. On the procedure: Osborne Mendle rats are selected as the study subjects due to their propensity to gain fat when fed a high fat diet. An initial measurement of body weight is performed on each rat. The rats are placed individually in appropriate cages and allowed an ad libitum diet of standard rat chow and water for a 10-day period. During this 10-day period the rats are gavaged daily with 0.1 cc volume of sunflower oil to allow them to become comfortable with being handled and receiving the gavage tube (it takes about 10 days for this acclimation to occur, and is important so that the animals are not stressed by the gavage). Daily measurements include the following: • 1. Weight • 2. Weight of food consumed • 3. Spillage • 4. Water consumed, both volume and weight The rats remain confined and are denied out-of-cage activity or exercise for the duration of the experiment other than normal daily activity confined to the cage. This initial 10 day period establishes a pattern and average of weight gain, to acclimate the animals to the gavage procedure, and determine the average food and water consumption for each rat. […]
At the end of the study, rats are anesthetized then sacrificed via guillotine. […] Weight of the uterus is determined. […]

Test [2] is described as follows: Dog weight-loss study, estrone eicosenoate vs oleoyl-estrone (Example 2). Format: in vivo. To be noted: oral 21 days, 5, 3.33 or 2.5 micromoles/kg vs OE 10 micromoles/kg. The source says:
Dogs are selected and initial measurements taken. The initial measurements include weight and electrical impedance for each dog as measured by a standard impedance measuring device with electrodes placed between the front and rear paws. The dogs are placed individually in appropriate cages and allowed an ad libitum diet of standard dog chow and water for a 10-day period. Daily measurements include the following: • 1. Weight • 2. Weight of food consumed • 3. Water consumed, both volume and weight Every other day, the dogs' electrical impedance is measured as an indicator of fat tissue content and loss. The dogs remain confined with out of cage activity or exercise for the duration of the experiment. This initial 10-day period establishes a pattern and average of weight gain, impedance change, and food and water consumption for each dog. […] This assures the dogs will readily accept the bread ball as a drug delivery device. […] An appropriate volume of either OE or EE is placed into the center of a thick piece of dense sweet bread (non-porous), carefully rolled into a small ball so none of the to compound leaks out, and sprinkled on the outer surface with sugar or syrup as determined above. […] Electrical impedance of each dog is measured every other day.

With `CCCCCCCC/C=C\CCCCCCCC(=O)Oc1cc2c(cc1O)[C@H]1CC[C@]3(C)C(=O)CC[C@H]3[C@@H]1CC2` [2HOE, 2 hydroxyestrone oleate], in test [1], the “body weight &/or body fat” value was “reduction of body weight &/or body fat” and the food consumption entry is “reduction in food consumption”.

With `CCCCCCCC/C=C\CCCCCCCCCC(=O)Oc1ccc2c(c1)CC[C@@H]1[C@@H]2CC[C@]2(C)C(=O)CC[C@@H]12` [EE, estrone eicosenoate], the “weight loss compared with dogs receiving oleoyl-estrone” value in test [2] is listed as “greater weight loss”.
